According to PMC7919409, “Crystal structures of adenylylated and unadenylylated PII protein GlnK from Corynebacterium glutamicum” (Acta Crystallographica. Section D, Structural Biology, 2021):

Target: T1, adGlnK (adenylylated GlnK) (Corynebacterium glutamicum, UniProt H7C694)
T1 construct: gene glnB; full length, untagged (stop codon inserted before Xa-Strep tag), produced in C. glutamicum; Tyr51 O-adenylylated (AMP covalently attached); homotrimer, hexamer in crystal; 112 residues
Experiment: X-ray crystal structure, […] A
Assay type: binding
Details: fortuitously bound, co-purified (no nucleotide added), one of six effector sites at subunit interface, Tyr51 adenylylated, Mg, Ca, pH 7.1, 292 K

T1 sequence (H7C694 entry or part of it): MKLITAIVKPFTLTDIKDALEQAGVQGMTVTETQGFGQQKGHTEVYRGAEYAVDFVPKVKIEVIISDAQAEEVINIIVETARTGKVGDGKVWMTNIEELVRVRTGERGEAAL

Compound	X-ray crystal structure, 1.8 A	X-ray crystal structure, 1.8 A (non-covalent AMP in ATP-binding pocket, distinct from)
Nc1ncnc2c1ncn2[C@@H]1O[C@H](COP(=O)(O)OP(=O)(O)O)[C@@H](O)[C@H]1O [ADP]	fortuitous binding of AMP and ADP was observed in the remaining two binding sites	–
Nc1ncnc2c1ncn2[C@@H]1O[C@H](COP(=O)(O)O)[C@@H](O)[C@H]1O [AMP]	–	fortuitous binding of AMP and ADP was observed in the remaining two binding sites
